The test system of one test is DNMT1. Kind of test: DNMT1 protein expression by Western Blotting. It is filed as cell-based, human. The note with it: for downregulation of DNMT1 protein expression: A549 and SW1573, 5-50 μM. The procedure: The mechanism of cell cycle arrest was investigated by measuring cell cycle proteins expression using western blotting. The influence of RX-3117 on protein expression during different treatment conditions was analyzed by western blot. Cells were lysed using cell lysis buffer 1× (Cell Signaling, Danvers, Mass., USA) containing 4% protease inhibitor cocktail (Roche Diagnostics, Mannheim, Germany) on ice for 30 minutes and centrifuged for 10 minutes at 4° C. at 14,000 rpm. The protein containing supernatant was collected and the Bio-Rad assay was performed to determine protein amount as described in Lemos et al., Pharmacogenomics, 12(2):159-70 (2011). The following antibodies were used for protein expression: DNMT1 (Cell Signaling, 1:1000 #5032S), DNMT3A (Cell Signaling 1:1000 #2160S), DNMT3B (Abcam, 1; 1000), Chk2 (Cell Signaling 1:1000 #6334P), Chk1 (Cell Signaling 1:1000), p-CDC25C (Cell Signaling 1:1000 #4901S), Cdk1 (Cell Signaling 1:1000 #9112S), Cdk2 (Cell Signaling 1:1000 #2546S), wee1 (Cell Signaling 1:1000), 5139-γH2A.X (Cell Signaling, 1:1000), β actin (Sigma, 1:10,000), Caspase 9 (Cell Signaling, 1:1000), PARP (Roche 2003, 1:1000), p53 (Cell Signaling, 1:1000, #9282). The antibodies were diluted in 1:1 solution Rockland buffer (Rockland Inc., Philadelphia, Pa., USA) and PBS supplemented with 0.05% Tween® 20. The proteins were separated in 20% SDS-PAGE and transferred to a PVDF membrane. For fluorescent signal secondary antibodies goat anti-mouse InfraRedDye and goat anti-rabbit InfraRedDye were used. The proteins were detected by an Odyssey InfraRed Imager (Li-COR Bioscience, Lincoln, Nebr., USA).
(§1) DNMT1 protein expression was measured by Western Blotting after exposure to RX-3117 for 24 or 48 hr. DNMT1 RNA expression was measured by real-time PCR after 24 and 48 hr exposure to RX-3117. DNMT enzyme activity was measured in isolated nuclei after exposure 1 μM RX-3117 or 5 μM aza-CdR using a DNA methyltransferase assay kit provided by EpiGentek using the ability of a CpG dinding domain to bind to methylated DNA. In A549 cells the effect of 5 μM RX-3117 on overall methylation was measured with a specific antibody against 5-methyl-cytosine. Bands on Western blots were visualized using appropriate InfraRedDye using an Odyssey InfraRed imager.
In general terms: A western blot detects proteins with antibodies after separation by electrophoresis.

The test system of test [1] is overall methylation of DNA. Kind of test: Overall methylation of DNA with antibody against 5-methyl-cytosine. It is filed as cell-based, human. The note with it: A549, 5 μM, 48 hr exposure. The procedure: as §1

On to `Nc1ccn([C@@H]2C(F)=C(CO)[C@@H](O)[C@H]2O)c(=O)n1` [RX-3117, 4-amino-1-((1S,4R,5S)-2-fluoro-4,5-dihydroxy-3-hydroxymethyl-cyclopent-2-enyl)-1H-pyrimidin-2-one], for which the DNMT1 protein expression result in the test on DNMT1 (A549, at higher dose (1-75 μM tested)) is given as “down regulates”; in the test with DNMT1 (A2780, 1 μM, 24 hr) it was “protein down regulation was already observed”. Also, the “downregulation of DNMT1 protein expression” value is on record as 5-20% with DNMT1 (24 hour exposure) and more than 90% with DNMT1 (48 hr). In test [1], the “decrease of overall methylation of DNA” value stood at 25%.
